Experimental data taken from patent publication US20090069302A1 (SMITHKLINE BEECHAM CORPORATION, priority 2006, published 2009).

Target: T1, AXOR109 (Homo sapiens, UniProt Q8TDU6)
T1 construct: expressed in transfected cells; host or cells: melanophore cells, transfected by electroporation
T1 sequence (Q8TDU6 1-330): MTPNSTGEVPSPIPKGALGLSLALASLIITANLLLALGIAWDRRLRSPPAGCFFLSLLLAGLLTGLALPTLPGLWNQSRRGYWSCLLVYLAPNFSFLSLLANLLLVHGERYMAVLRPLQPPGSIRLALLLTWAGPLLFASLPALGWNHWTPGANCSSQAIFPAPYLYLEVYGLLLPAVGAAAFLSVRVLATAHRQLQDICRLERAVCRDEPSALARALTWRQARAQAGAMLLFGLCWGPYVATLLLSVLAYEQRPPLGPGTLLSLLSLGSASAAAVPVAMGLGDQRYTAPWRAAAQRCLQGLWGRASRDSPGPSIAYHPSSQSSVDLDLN
Experiment: Human AXOR109/Melanophore Assay
Format: cell-based
Conditions: melanophore assay; for Emax: 1 h; for EC50: AXOR109 transfected melanophores
Experimental: AXOR109 is a Gs-coupled receptor and therefore increases intracellular cAMP leading to melanosome dispersion. Compounds of the present invention were characterized in a melanophore assay as described in Jayawickreme C K, et al., Current Protocols in Pharmacology (2005) 12.9.1-12.9.16. Briefly, melanophore cells are transfected by electroporation with AXOR109 expressing cDNA. Cells are then plated in 384 well clear bottom plates at 8E3 cells per well in 50 μl of conditioned fibroblast media (CFM). Compounds to be tested are serially diluted 3-fold in DMSO and further diluted 1:100 with melanophore assay buffer (MAB)+10 nM Melatonin to yield 11 point concentration response curves. Following 2 hour incubation with MAB+1% DMSO+10 nM Melatonin, initial transmittance is read on a TwisterII/Spectramax plate reader. Compounds are then added to the cells and incubated for 1 hour, and final transmittance is read as before. Results are compared to vehicle (MAB+1% DMSO+10 nM Melatonin) and to a positive control (MAB+1% DMSO+10 nM Melatonin+200 nM alpha-MSH). Data are calculated for each well as follows: 1-(Transmitance-final/Transmitance-initial). Each well result is then normalized to alpha-MSH, the system max control for Gs/Gq coupled receptors using the following equation: (ObjX−Control1)/(Control2−Control1)*100. The percent system max is used to generate the pEC50 using the equation: y=((Vmax*x̂n)/(K̂n+x̂n))+Y2. Acceptable Z-prime values should be >0.4. Compounds of the present invention have a pEC50≧5.0 in the above described assay.

[1] = normalized to alpha-MSH system max

Emax [1] [%] | EC50 [µM] | % Max [1] | Structure (SMILES)
51 to 75 | 0.126 to 1 | – | COc1ccc(S(=O)(=O)N2CCC(=O)N(S(=O)(=O)c3ccc(OC)c(OC)c3)CC2)cc1OC [Example 28, 1,4-bis{[3,4-bis(methyloxy)phenyl]sulfonyl}hexahydro-5H-1,4-diazepin-5-one]
51 to 75 | 0.126 to 1 | – | COc1ccc(S(=O)(=O)N2CCN(S(=O)(=O)c3ccc(OC)c(OC)c3)C(C)C2)cc1OC (stereo not shown) [Example 29, 1,4-bis{[3,4-bis(methyloxy)phenyl]sulfonyl}-2-methylpiperazine]
76 to 100 | 1.26 to 10 | – | COc1ccc(S(=O)(=O)N2CCCN(S(=O)(=O)c3ccc(OC)c(OC(F)(F)F)c3)CC2)cc1OC [Example 30, 1-{[3,4-bis(methyloxy)phenyl]sulfonyl}-4-({4-(methyloxy)-3-[(trifluoromethyl)oxy]phenyl}sulfonyl)hexahydro-1H-1,4-diazepine]
0 to 50 | 0.126 to 1 | – | COc1ccc(S(=O)(=O)N(C)CCN(C)S(=O)(=O)c2ccc(OC)c(OC(F)(F)F)c2)cc1OC [Example 31, N-methyl-N-{2-[methyl({4-(methyloxy)-3 [(trifluoromethyl)oxy]phenyl}sulfonyl)amino]ethyl}-3,4-bis(methyloxy)benzenesulfonamide]
51 to 75 | 0.126 to 1 | – | COc1ccc(S(=O)(=O)N2C[C@@H](C)N(S(=O)(=O)c3ccc(OC)c(OC)c3)[C@@H](C)C2)cc1F [Example 32, 1-{[3,4-bis(methyloxy)phenyl]sulfonyl}-4-{[3-fluoro-4-(methyloxy)phenyl]sulfonyl}-2,6-cis-dimethylpiperazine]
51 to 75 | 1.26 to 10 | – | COc1cccc(S(=O)(=O)N2C[C@@H](C)N(S(=O)(=O)c3ccc(OC)c(OC)c3)[C@@H](C)C2)c1 [Example 33, 1-{[3,4-bis(methyloxy)phenyl]sulfonyl}-2,6-cis-dimethyl-4-{[3-(methyloxy)phenyl]sulfonyl}piperazine]
51 to 75 | 1.26 to 10 | – | COc1ccc(S(=O)(=O)N2[C@H](C)CN(S(=O)(=O)c3ccc(-c4cnco4)cc3)C[C@@H]2C)cc1OC [Example 34, 1-{[3,4-bis(methyloxy)phenyl]sulfonyl}-2,6-cis-dimethyl-4-{[4-(1,3-oxazol-5-yl)phenyl]sulfonyl}piperazine]
51 to 75 | 0.126 to 1 | – | COc1ccc(S(=O)(=O)N2C[C@@H](C)N(S(=O)(=O)c3ccc(OC)c(OC)c3)[C@@H](C)C2)cc1 [Example 35, 1-{[3,4-bis(methyloxy)phenyl]sulfonyl}-2,6-cis-dimethyl-4-{[4-(methyloxy)phenyl]sulfonyl}piperazine]
51 to 75 | 0.126 to 1 | – | COc1ccc(S(=O)(=O)N2C[C@@H](C)N(S(=O)(=O)c3ccc(OC)c(OC(F)(F)F)c3)[C@@H](C)C2)cc1OC [Example 36, 4-{[3,4-bis(methyloxy)phenyl]sulfonyl}-2,6-cis-dimethyl-1-({4-(methyloxy)-3-[(trifluoromethyl)oxy]phenyl}sulfonyl)piperazine]
0 to 50 | 1.26 to 10 | – | COc1ccc(S(=O)(=O)N2C[C@@H](C)N(S(=O)(=O)c3ccc4oc(=O)ccc4c3)[C@@H](C)C2)cc1OC [Example 37, 6-[(4-{[3,4-bis(methyloxy)phenyl]sulfonyl}-2,6-cis-dimethyl-1-piperazinyl)sulfonyl]-2H-chromen-2-one]
51 to 75 | 1.26 to 10 | – | COc1ccc(S(=O)(=O)N2[C@H](C)CN(S(=O)(=O)c3ccc(OC)c(OC)c3)C[C@@H]2C)cc1O [Example 38, 5-[(4-{[3,4-bis(methyloxy)phenyl]sulfonyl}-2,6-cis-dimethyl-1-piperazinyl)sulfonyl]-2-(methyloxy)phenol]
0 to 50 | 1.26 to 10 | – | COc1ccc(S(=O)(=O)N2CC(C)N(S(=O)(=O)c3ccc(OC)c(OC)c3)C(C)C2C)cc1OC (stereo not shown) [Example 39, 1,4-bis{[3,4-bis(methyloxy)phenyl]sulfonyl}-2,3,5-trimethylpiperazine]
51 to 75 | 0.126 to 1 | – | COc1ccc(S(=O)(=O)N2CCN(S(=O)(=O)c3ccc(OC)c(OC)c3)[C@@H](C)[C@H]2C)cc1OC [Example 40, 1,4-bis{[3,4-bis(methyloxy)phenyl]sulfonyl}-2,3-dimethylpiperazine]
51 to 75 | 0.126 to 1 | – | CCc1cc(S(=O)(=O)N2CCCN(S(=O)(=O)c3ccc(OC)c(OC)c3)CC2)ccc1OC [Example 41, 1-{[3,4-bis(methyloxy)phenyl]sulfonyl}-4-{[3-ethyl-4-(methyloxy)phenyl]sulfonyl}hexahydro-1H-1,4-diazepine]
51 to 75 | 1.26 to 10 | – | COc1ccc(S(=O)(=O)NCCN(C)S(=O)(=O)c2ccc(OC)c(OC)c2)cc1OC [Example 42, N-[2-({[3,4-bis(methyloxy)phenyl]sulfonyl}amino)ethyl]-N-methyl-3,4-bis(methyloxy)benzenesulfonamide]
0 to 50 | 0.126 to 1 | – | CCc1cc(S(=O)(=O)N(C)CCN(C)S(=O)(=O)c2ccc(OC)c(OC)c2)ccc1OC [Example 43, N-{2-[{[3,4-bis(methyloxy)phenyl]sulfonyl}(methyl)amino]ethyl}-N-methyl-3-ethyl-4-(methyloxy)benzenesulfonamide]
51 to 75 | 0.126 to 1 | – | COc1ccc(S(=O)(=O)N(C)CC(C)N(C)S(=O)(=O)c2ccc(OC)c(OC)c2)cc1OC (stereo not shown) [Example 44, N,N′-1,2-propanediylbis[N-methyl-3,4-bis(methyloxy)benzenesulfonamide]]
76 to 100 | 1.26 to 10 | – | CC[C@@H]1CN(S(=O)(=O)c2ccc(OC)c(OC)c2)[C@@H](CC)CN1S(=O)(=O)c1ccc(OC)c(OC)c1 [Example 45, (2R,5S)-1,4-bis{[3,4-bis(methyloxy)phenyl]sulfonyl}-2,5-diethylpiperazine]
51 to 75 | 1.26 to 10 | – | CCC1CN(S(=O)(=O)c2ccc(OC)c(OC)c2)C(C)CN1S(=O)(=O)c1ccc(OC)c(OC)c1 (stereo not shown) [Example 46, 1,4-bis{[3,4-bis(methyloxy)phenyl]sulfonyl}-2-ethyl-5-methylpiperazine]
– | < 0.126 | – | COc1ccc(S(=O)(=O)N2C[C@H](C)N(S(=O)(=O)c3ccc(OC)c(OC)c3)C[C@@H]2C)cc1OC [Example 47, (2S,5S)-1,4-bis{[3,4-bis(methyloxy)phenyl]sulfonyl}-2,5-dimethylpiperazine]
76 to 100 | 1.26 to 10 | – | COc1ccc(S(=O)(=O)N2CC(C)(C)N(S(=O)(=O)c3ccc(OC)c(OC)c3)CC2=O)cc1OC [Example 48, 1,4-bis{[3,4-bis(methyloxy)phenyl]sulfonyl}-5,5-dimethyl-2-piperazinone]
51 to 75 | 1.26 to 10 | – | COc1ccc(S(=O)(=O)N2CCCN(S(=O)(=O)c3ccc(OC)c(OC)c3)C(C)C2)cc1OC (stereo not shown) [Example 49, 1,4-bis{[3,4-bis(methyloxy)phenyl]sulfonyl}-2-methylhexahydro-1H-1,4-diazepine]
76 to 100 | 0.126 to 1 | – | COc1ccc(S(=O)(=O)N2CCN(S(=O)(=O)c3ccc(OC)c(OC)c3)C(C)(C)C2)cc1OC [Example 50, 1,4-bis{[3,4-bis(methyloxy)phenyl]sulfonyl}-2,2-dimethylpiperazine]
76 to 100 | 1.26 to 10 | – | COc1ccc(S(=O)(=O)N2CCN(S(=O)(=O)c3ccc(OC)c(OC)c3)CC(=O)C2)cc1OC [Example 51, 1,4-bis{[3,4-bis(methyloxy)phenyl]sulfonyl}hexahydro-6H-1,4-diazepin-6-one]
76 to 100 | 0.126 to 1 | – | COc1ccc(S(=O)(=O)N2CCN(S(=O)(=O)c3ccc(OC)c(OC)c3)CC(F)C2)cc1OC [Example 52, 1,4-bis{[3,4-bis(methyloxy)phenyl]sulfonyl}-6-fluorohexahydro-1H-1,4-diazepine]
51 to 75 | 0.126 to 1 | – | COc1ccc(S(=O)(=O)N2CCN(S(=O)(=O)c3ccc(OC)c(OC)c3)CC(F)(F)C2)cc1OC [Example 53, 1,4-bis{[3,4-bis(methyloxy)phenyl]sulfonyl}-6,6-difluorohexahydro-1H-1,4-diazepine]
– | 0.126 to 1 | * (“*” = 0% to 50%) | COc1ccc(S(=O)(=O)N2C[C@@H](C)N(S(=O)(=O)c3ccc(OC)c(OC)c3)[C@@H](C)C2)cc1OC [Example 54, (2R,6S)-1,4-bis{[3,4-bis(methyloxy)phenyl]sulfonyl}-2,6-dimethylpiperazine]
51 to 75 | 0.126 to 1 | – | COc1ccc(S(=O)(=O)N(C)C(C)C(C)N(C)S(=O)(=O)c2ccc(OC)c(OC)c2)cc1OC (stereo not shown) [Example 55, N,N′-2,3-butanediylbis[N-methyl-3,4-bis(methyloxy)benzenesulfonamide]]
